Columns and labels:
[1] = molecular target: T1, panel of 442 kinases (Homo sapiens, UniProt P53355); format: binding; conditions: Compound Concentration 10 µM
T1 construct: purchased KINOMEscan
Source text: (§1) We assessed the selectivity of members of this scaffold using the KINOMEscan methodology across a near comprehensive panel of 442 kinases [[18,27]].

[2] = molecular target: T2, panel of 442 kinases (Homo sapiens, UniProt Q16832); format: binding; conditions: Compound Concentration 10 µM
T2 construct: purchased KINOMEscan
T2 sequence (Q16832 22-855): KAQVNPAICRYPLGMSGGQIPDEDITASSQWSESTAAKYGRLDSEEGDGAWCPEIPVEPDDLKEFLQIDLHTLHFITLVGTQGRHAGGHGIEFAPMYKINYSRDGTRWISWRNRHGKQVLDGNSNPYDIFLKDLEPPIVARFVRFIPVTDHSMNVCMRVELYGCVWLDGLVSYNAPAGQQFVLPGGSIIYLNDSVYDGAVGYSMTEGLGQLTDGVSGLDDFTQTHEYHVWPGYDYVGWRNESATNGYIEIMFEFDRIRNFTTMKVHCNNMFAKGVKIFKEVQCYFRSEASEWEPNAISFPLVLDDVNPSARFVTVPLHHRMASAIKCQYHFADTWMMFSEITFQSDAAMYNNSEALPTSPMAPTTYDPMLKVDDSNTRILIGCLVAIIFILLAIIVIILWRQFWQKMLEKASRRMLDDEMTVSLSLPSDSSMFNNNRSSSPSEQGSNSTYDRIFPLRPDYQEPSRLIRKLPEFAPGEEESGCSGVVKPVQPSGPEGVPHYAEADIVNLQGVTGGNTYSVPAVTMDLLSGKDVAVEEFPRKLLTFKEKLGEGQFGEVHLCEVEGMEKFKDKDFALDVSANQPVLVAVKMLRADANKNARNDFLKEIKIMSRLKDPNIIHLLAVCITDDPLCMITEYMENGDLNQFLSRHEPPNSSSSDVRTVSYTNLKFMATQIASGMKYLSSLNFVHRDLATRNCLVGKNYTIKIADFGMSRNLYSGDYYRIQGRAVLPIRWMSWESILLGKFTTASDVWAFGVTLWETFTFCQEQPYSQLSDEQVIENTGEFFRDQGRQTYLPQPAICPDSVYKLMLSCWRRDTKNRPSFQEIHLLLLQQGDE
Source text: as §1

T1 sequence (P53355 whole entry): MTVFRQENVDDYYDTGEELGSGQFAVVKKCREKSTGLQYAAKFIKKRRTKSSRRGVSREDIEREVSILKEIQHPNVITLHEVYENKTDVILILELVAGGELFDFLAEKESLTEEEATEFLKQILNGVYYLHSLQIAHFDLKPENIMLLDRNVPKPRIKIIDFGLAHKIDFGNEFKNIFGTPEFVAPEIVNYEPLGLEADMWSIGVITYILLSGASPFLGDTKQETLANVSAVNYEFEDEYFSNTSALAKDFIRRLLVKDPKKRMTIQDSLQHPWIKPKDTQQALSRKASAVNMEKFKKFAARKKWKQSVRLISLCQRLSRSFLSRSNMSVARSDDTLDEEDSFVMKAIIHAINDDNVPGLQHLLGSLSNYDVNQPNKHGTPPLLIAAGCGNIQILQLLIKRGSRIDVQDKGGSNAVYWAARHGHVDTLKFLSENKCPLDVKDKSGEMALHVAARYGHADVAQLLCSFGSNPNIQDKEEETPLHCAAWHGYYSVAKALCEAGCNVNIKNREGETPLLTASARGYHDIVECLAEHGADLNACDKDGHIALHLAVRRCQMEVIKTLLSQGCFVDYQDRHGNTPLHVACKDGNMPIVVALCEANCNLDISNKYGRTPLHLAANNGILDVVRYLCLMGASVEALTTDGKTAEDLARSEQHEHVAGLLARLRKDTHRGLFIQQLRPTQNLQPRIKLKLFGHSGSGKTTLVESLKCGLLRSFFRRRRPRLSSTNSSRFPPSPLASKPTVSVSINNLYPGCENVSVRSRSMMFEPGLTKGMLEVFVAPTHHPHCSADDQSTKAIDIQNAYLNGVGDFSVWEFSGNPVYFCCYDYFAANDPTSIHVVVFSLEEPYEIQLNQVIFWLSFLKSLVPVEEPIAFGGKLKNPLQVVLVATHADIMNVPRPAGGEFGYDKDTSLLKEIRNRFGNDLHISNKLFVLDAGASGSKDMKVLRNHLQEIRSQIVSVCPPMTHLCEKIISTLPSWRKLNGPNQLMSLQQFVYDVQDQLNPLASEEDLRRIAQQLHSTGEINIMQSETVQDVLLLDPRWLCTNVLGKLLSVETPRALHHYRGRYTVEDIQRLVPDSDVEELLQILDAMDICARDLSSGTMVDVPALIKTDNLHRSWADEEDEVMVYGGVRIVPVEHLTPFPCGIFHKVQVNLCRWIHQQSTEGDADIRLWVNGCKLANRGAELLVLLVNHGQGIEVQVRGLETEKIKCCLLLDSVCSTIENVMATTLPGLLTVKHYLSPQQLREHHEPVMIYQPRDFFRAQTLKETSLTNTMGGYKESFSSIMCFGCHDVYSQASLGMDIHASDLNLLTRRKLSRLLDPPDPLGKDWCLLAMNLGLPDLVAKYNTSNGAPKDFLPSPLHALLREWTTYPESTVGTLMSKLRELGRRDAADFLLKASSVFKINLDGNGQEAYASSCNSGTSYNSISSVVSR

COc1cc(C(=O)N2CCC(N3CCN(C)CC3)CC2)ccc1Nc1ncc2c(n1)N(C)c1ccccc1C(=O)N2C [15 (LRRK2-IN-1)]
KINOMEscan: DAPK1 [1]: 73 | KINOMEscan: DDR2 [2]: 100

COc1cc(C(=O)N2CCC(N3CCN(C)CC3)CC2)ccc1Nc1ncc2c(n1)N1CCc3cccc(c31)C(=O)N2C [Compound 24]
KINOMEscan: DAPK1 [1]: 19

COc1cc(C(=O)N2CCC(N3CCN(C)CC3)CC2)ccc1Nc1ncc2c(n1)N(C1CCCC1)c1ccccc1C(=O)N2C [Compound 25, 11-cyclopentyl-2-((2-methoxy-4-(4-(4-methylpiperazin-1-yl)piperidine-1-carbonyl)phenyl)amino)-5-methyl-5H-benzo[e]pyrimido[5,4-b][1,4]diazepin-6(11H)-one]
KINOMEscan: DAPK1 [1]: 77 | KINOMEscan: DDR2 [2]: 96

CCOc1cc(C(=O)N2CCC(N3CCN(C)CC3)CC2)ccc1Nc1ncc2c(n1)N(C1CCCC1)c1ccccc1C(=O)N2C [Compound 26]
KINOMEscan: DAPK1 [1]: 100 | KINOMEscan: DDR2 [2]: 81
